# Source: US20120329865A1, “MOLECULES RELATED hERG ION [sequence] AND THE USE THEREOF” (priority 2009, published 2012)
# Entries after “also recorded” stand apart in the source; their conditions may differ. Read-outs that look alike come from different tables or passages of the source.
# How the values were obtained:
# [1] = biological target: T1, hERG ion channels (Homo sapiens, UniProt Q12809)
# From the text: (§2) Label-free RWG biosensor cellular assays were developed to directly assaying the activation and its subsequent signaling of hERG channels without applying voltages to the cells. […] Generally, the disclosed methods to characterize modulators acting directly through hERG ion channel, or indirectly via hERG-associated signaling complexes are related to label-free biosensor cellular assays. Disclosed is the use of three types of cells: a cancerous cell line endogenously expressing hERG ion channels, a native cell line without endogenous hERG channels and its engineered cell line overexpressing hERG channels, for characterizing hERG modulators. Also disclosed is the use of mallotoxin or other hERG activator as a readout to further confirm the modes of action of hERG modulators.
# (§3) In a specific approach, any compound can be profiled in three different types of cells, HT29, HEK-hERG, and HEK-293 cells, in both agonism and antagonism modes. The human colon cancerous cell line HT-29 is known to endogenously express hERG channels. HEK293 is a native cell line without endogenously expressed hERG channels, while HEK-hERG is an engineered HEK293 cell having stably expressed hERG channels.
# [2] = biological target: T1, hERG ion channels; assay: DMR antagonism mode: modulation of the mallotoxin DMR signal in HT29 cells; conditions: for effect on the mallotoxin DMR signal in HT29 cells (in words): antagonism assay; for score of modulation index, HT29 coordinate: score assigned from % modulation of mallotoxin DMR (10% = 1)
# [3] = biological target: T1, hERG ion channels; assay: DMR antagonism mode: modulation of the mallotoxin DMR signal in HEK-hERG cells; conditions: for effect on the mallotoxin DMR signal in HEK-hERG cells (in words): antagonism assay; for score of modulation index, HEK-hERG coordinate: score assigned from % modulation of mallotoxin DMR (10% = 1)
# [4] = biological target: T1, hERG ion channels; assay: Label-free RWG biosensor (Epic) DMR assay, agonism mode, HEK-hERG cells stably expressing hERG; conditions: 10 micromolar
# From the text: (§4) Using the RWG biosensor Corning® Epic® system, all compounds were systematically characterized for their ability to modulate hERG ion channels in live cells. The Epic® system consists of a temperature-control unit, an optical detection unit, with an on-board liquid handling unit with robotics, or an external liquid accessory system with robotics. The detection unit is centered on integrated fiber optics, and enables kinetic measures of cellular responses with a time interval of ˜7 or 15 sec. The compound solutions were introduced by using either the on-board liquid handling unit, or the external liquid accessory system; both of which use conventional pippetting system.
# (§5) Epic® wavelength interrogation system (Corning Inc., Corning, N.Y.) was used for whole cell sensing. This system consists of a temperature-control unit, an optical detection unit, and an on-board liquid handling unit with robotics. The detection unit is centered on integrated fiber optics, and enables kinetic measures of cellular responses with a time interval of ˜15 sec.
# (§6) Cells were plated in 384-well Epic® cell culture treated plate (Corning Cat#5040) 16-20 hours before assay (15000 cells/well for HEK293 and HEK-hERG cells, 30000 cells/well for HT29 cells). For both HEK-hERG and its parental HEK293 cells, each well was coated with 10 μl 5 μg/ml fibronectin. One hour before assay, cells were washed twice on a BioTek ELx405 Select washer with Hank's Balanced Salt Solution (HBSS) containing 20 mM Hepes. Cells were incubated in 40 μl/well HBSS at 28° C. inside the Epic system for one hour. For each assay, a 2-min baseline was initiated, followed by addition of 10 μl compound solutions (5×) and the cell responses were recorded continuously for one hour.
# (§7) All studies were carried out at a controlled temperature (28° C.). At least two independent sets of experiments, each with at least three replicates, were performed. […] All dose-dependent responses were analyzed using non-linear regression method with the GraphPad Prism 5.
# as §3
# [5] = biological target: T1, hERG ion channels; assay: Label-free RWG biosensor (Epic) DMR assay, agonism mode, HT29 cells endogenously expressing hERG; conditions: 10 micromolar
# From the text: as §4, §5, §6, §7, §3
# [6] = test system: HT29; assay: Cell proliferation assay (CellTiter-Glo) in HT29; format: cell-based, human; conditions: for cytotoxicity on cancer cell line HT29: 25 micromolar, in vitro culture; for cell apoptosis or alteration in cell proliferation rate, HT29: 48 h exposure
# Procedure: (§1) Proliferation was measured using the CellTiter-Glo Luminescent Cell Viability Assay (Technical Bulletin #288, Promega, Madison, Wis.). When added to cells, the assay reagent produces luminescence in the presence of ATP from viable cells. Cells were plated in 96-well Corning Costar TCT (tissue culture treated) plates at a density of 10,000 cells/well and incubated for 24 h. Test samples were solubilized in dimethyl sulfoxide (DMSO) by sonication, filter sterilized and diluted with media to the desired treatment concentration. Cells were treated with 100 μl control media, or test samples, and incubated for 48 h drug exposure duration. At the end of 48 h, plates were equilibrated at room temperature for 30 min, 100 μl of the assay reagent was added to each well and cell lysis was induced on an orbital shaker for 2 min. Plates were incubated at room temperature for 10 min to stabilize the luminescence signal and results were read on an Perkin Elmer Vector 3 Microplate Reader. All plates had control wells containing medium without cells to obtain a value for background luminescence. Data are expressed as for three replications.
# [7] = test system: MCF7; assay: Cell proliferation assay (CellTiter-Glo) in MCF7; format: cell-based; conditions: 48 h exposure; data not shown
# Procedure: as §1
# [8] = biological target: T1, hERG ion channels; assay: Rb+ flux assay using HEK-hERG cells; conditions: 5 mM KCl, modulators at 10 or 50 micromolar (FIG. 3)
# Procedure: Briefly, 50,000 cells per well were plated in 96-well tissue culture treated plates 20 hours before assay. In the next day, cells were incubated with complete cell culture medium containing 5 mM RbCl for 3 hours at 37° C. with 5% CO2. Then compounds (10×) diluted in HBSS were added into the cell culture medium and cells were incubated at 37° C. with 5% CO2 for another hour. Cells were washed twice with Rb^+ free cell culture medium and incubated with 180 μl/well of cell culture medium containing different concentration of KCl for exactly 10 minutes. The supernatant from each well was transferred to a new 96 well plate immediately. Cells were lysed with 180 μl/well 0.5% Triton100 in HBSS. The Rb^+ concentration of each sample was determined by ICR8000 (Aurora Biomed Inc.).
# [9] = biological target: T1, hERG ion channels; assay: Label-free biosensor hERG modulator classification from profiles in HT29, HEK-hERG and HEK293 cells plus mallotoxin modulation; conditions: label-free biosensor cellular assays
# From the text: as §2, §3
# [10] = biological target: hERG channel (Homo sapiens, UniProt Q12809); assay: Automated patch clamp recording using IonWorks, CHO-hERG cells; conditions: 50 micromolar; tail current at -35 mV after +40 mV depolarization
# Chain of hERG channel (Q12809 whole entry): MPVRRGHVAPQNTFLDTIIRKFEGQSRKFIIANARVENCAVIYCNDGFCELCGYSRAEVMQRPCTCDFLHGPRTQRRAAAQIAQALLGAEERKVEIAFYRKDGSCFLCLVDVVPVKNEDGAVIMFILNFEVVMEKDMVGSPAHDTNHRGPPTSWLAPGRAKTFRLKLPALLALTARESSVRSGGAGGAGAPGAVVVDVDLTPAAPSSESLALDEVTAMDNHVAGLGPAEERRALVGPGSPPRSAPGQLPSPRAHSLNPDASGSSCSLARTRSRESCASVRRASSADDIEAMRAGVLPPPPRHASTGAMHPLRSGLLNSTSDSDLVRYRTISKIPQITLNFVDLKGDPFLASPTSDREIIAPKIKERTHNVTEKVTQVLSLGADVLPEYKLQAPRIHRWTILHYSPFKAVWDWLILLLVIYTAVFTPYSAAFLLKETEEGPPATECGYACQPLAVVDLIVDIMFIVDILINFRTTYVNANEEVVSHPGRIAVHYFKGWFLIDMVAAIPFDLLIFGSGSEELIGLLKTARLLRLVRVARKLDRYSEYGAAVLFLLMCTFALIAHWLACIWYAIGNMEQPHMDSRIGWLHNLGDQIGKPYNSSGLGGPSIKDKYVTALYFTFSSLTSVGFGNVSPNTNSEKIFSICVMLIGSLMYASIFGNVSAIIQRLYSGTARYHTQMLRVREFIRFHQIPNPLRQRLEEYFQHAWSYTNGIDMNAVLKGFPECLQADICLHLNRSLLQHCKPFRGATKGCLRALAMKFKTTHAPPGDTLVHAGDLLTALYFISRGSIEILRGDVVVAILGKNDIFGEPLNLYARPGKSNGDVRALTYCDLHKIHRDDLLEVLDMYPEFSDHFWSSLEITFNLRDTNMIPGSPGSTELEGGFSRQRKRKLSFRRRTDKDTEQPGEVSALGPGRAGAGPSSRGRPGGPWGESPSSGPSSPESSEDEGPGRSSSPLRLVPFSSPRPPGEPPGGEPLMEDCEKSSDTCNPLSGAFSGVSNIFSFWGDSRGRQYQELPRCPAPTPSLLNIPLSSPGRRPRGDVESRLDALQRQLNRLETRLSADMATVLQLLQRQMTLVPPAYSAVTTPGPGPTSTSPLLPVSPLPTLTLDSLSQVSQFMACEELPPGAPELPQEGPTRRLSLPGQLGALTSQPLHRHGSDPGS
# Procedure: CHO-K1 cells stably expressing hERG channel (CHO-hERG) were cultured in T175 flask till about 70% confluent. Cells were washed twice with PBS, then 2.5 ml 0.25% Trypsin/EDTA was mixed with 2.5 ml PBS and added to the T175 flask. Cells were incubated about 2 minutes with the diluted Trypsin/EDTA solution at 37° C., then were continuously incubated about 3 minutes at room temperature. 20 ml fresh medium were added to suspend the cells and transfer to a 50 ml tube. Cells were centrifuged down at 750 rpm for 5 minutes. The extra medium was removed and cells were resuspended in 6 ml External Buffer (137 mM NaCl, 4 mM KCl, 1.8 mM CaCl2, 1 mM MgCl2, 10 mM HEPES, 10 mM glucose, pH 7.4). Then cells were centrifuged again at 450 rpm for another 5 minutes. Finally cells were resuspended in 4 ml the External Buffer, cell number was counted using a hemacytometer. Cell suspension was diluted to 2.5×10^6 cells/ml with the External Buffer. 4 ml of the resuspended cells were added to the cell reservoir in IonWorks. The Internal solution used contains: 40 mM KCl, 100 mM K-Gluconate, 3.2 mM MgCl2, 2 mM CaCl2, 5 mM HEPES, pH 7.25 (adjusted with KOH). […]
# hERG currents were recorded on IonWorks Quattro (Molecular Devices). […] Tail currents were measured during an ensuing return to −35 mV. […]
# [11] = molecule 10 micromolar, mallotoxin 16 micromolar
# T1 sequence (Q12809 whole entry): as above
structure (smiles),measurement,setting,value
"N#CC(C#N)=Cc1ccc([N+](=O)[O-])c(O)c1 [AG126, reference compound]",class of hERG modulator assigned,[1],hERG pathway activator
CC1=C(C#N)C(=C(C#N)C#N)OC1(C)C [A],class of hERG modulator assigned,[1],label-free biosensor hERG activator
CC1=C(C#N)C(=C(C#N)C#N)OC1(C)c1ccc(F)cc1 (stereo not drawn) [C],class of hERG modulator assigned,[1],label-free biosensor hERG activator
"O=C(O)CC1CCC(c2ccc(-c3cc(C(F)(F)F)[nH]n3)cc2)CC1 (stereo not drawn) [Compound A-935142, reference compound]",class of hERG modulator assigned,[1],label-free biosensor hERG activators
"CC1=C(C#N)C(=C(C#N)C#N)OC1(c1ccccc1)C(F)(F)F (stereo not drawn) [Compound B, 2-dicyanomethylene-3-cyano-4-methyl-5-phenyl-5-perfluoromethyl-2,5-dihydrofuran]",class of hERG modulator assigned,[1],potent label-free biosensor hERG activator
same,effect on the mallotoxin DMR signal in HT29 cells (in words),[2]; [11],desensitization
same,effect on the mallotoxin DMR signal in HEK-hERG cells (in words),[3]; [11],desensitization
same,DMR signal in HEK-hERG cells,[4],robust DMR signals
same,DMR signal in HT29 cells,[5],robust DMR signals
"CC1=C(C#N)C(=C(C#N)C#N)OC1(C)c1ccc(F)cc1F (stereo not drawn) [Compound D, 2-dicyanomethylene-3-cyano-4,5-dimethyl-5-[2′,4′-difluorophenyl]-2,5-dihydrofuran]",cytotoxicity on cancer cell line HT29,[6],did not exhibit cytotoxicity
same,"cell apoptosis or alteration in cell proliferation rate, HT29",[6],did not lead to cell apoptosis or any alteration in cell proliferation rate
same,"cell apoptosis or alteration in cell proliferation rate, MCF7",[7],did not lead to cell apoptosis or any alteration in cell proliferation rate
same,Rb+ flux signal,[8],small but detectable increase
same,effect on the mallotoxin DMR signal in HT29 cells (in words),[2]; [11],attenuated signal
same,effect on the mallotoxin DMR signal in HEK-hERG cells (in words),[3]; [11],attenuated signal
same,DMR signal in HEK-hERG cells,[4],robust DMR signals
same,DMR signal in HT29 cells,[5],robust DMR signals
"CCCCc1ccc(C2(C)OC(=C(C#N)C#N)C(C#N)=C2C)cc1 (stereo not drawn) [Compound E, 2-dicyanomethylene-3-cyano-4,5-dimethyl-5-[4′-n-butylphenyl]-2,5-dihydrofuran]",cytotoxicity on cancer cell line HT29,[6],did not exhibit cytotoxicity
same,"cell apoptosis or alteration in cell proliferation rate, HT29",[6],did not lead to cell apoptosis or any alteration in cell proliferation rate
same,"cell apoptosis or alteration in cell proliferation rate, MCF7",[7],did not lead to cell apoptosis or any alteration in cell proliferation rate
same,class of hERG modulator assigned,[1],hERG activators
same,Rb+ flux signal,[8],small but detectable increase
same,effect on the mallotoxin DMR signal in HT29 cells (in words),[2]; [11],attenuated signal
same,effect on the mallotoxin DMR signal in HEK-hERG cells (in words),[3]; [11],attenuated signal
same,DMR signal in HEK-hERG cells,[4],robust DMR signals
same,DMR signal in HT29 cells,[5],robust DMR signals
"CC1=C(C#N)C(=C(C#N)C#N)OC1(C)c1ccc(Cl)c(Cl)c1 (stereo not drawn) [Compound F, 2-dicyanomethylene-3-cyano-4,5-dimethyl-5-[3′,4′-dichlorophenyl]-2,5-dihydrofuran]",class of hERG modulator assigned,[1],label-free biosensor hERG activator
"CC1=C(C#N)C(=C(C#N)C#N)OC1(C)c1ccc(Cl)cc1Cl (stereo not drawn) [Compound G, 2-dicyanomethylene-3-cyano-4,5-dimethyl-5-[2′,4′-dichlorophenyl]-2,5-dihydrofuran]",melting point,,239 to 240 °C
CC1=C/C(=C/C=C/C2=C(C#N)C(=C(C#N)C#N)OC2(C)c2ccc(C3CCCCC3)cc2)CC(C)(C)C1 (stereo not drawn) [Compound I],class of hERG modulator assigned,[1],label-free biosensor hERG activator
"CC1=C(C#N)C(=C(C#N)C#N)OC12CCCCC2 [Compound U, 2-dicyanomethylene-3-cyano-4-methyl-5-spiro-cyclohexyl-2,5-dihydrofuran]",cytotoxicity on cancer cell line HT29,[6],did not exhibit cytotoxicity
same,"cell apoptosis or alteration in cell proliferation rate, HT29",[6],did not lead to cell apoptosis or any alteration in cell proliferation rate
same,"cell apoptosis or alteration in cell proliferation rate, MCF7",[7],did not lead to cell apoptosis or any alteration in cell proliferation rate
same,class of hERG modulator assigned,[1],label-free biosensor hERG activator
CC1=C(C#N)C(=C(C#N)C#N)OC1(C)c1ccc(Cl)c(Cl)c1Cl (stereo not drawn) [H],class of hERG modulator assigned,[1],label-free biosensor hERG activator
CN(CCO)c1ccc(/C=C/C2=C(C#N)C(=C(C#N)C#N)OC2(C)c2c(F)c(F)c(F)c(F)c2F)cc1 (stereo not drawn) [J],class of hERG modulator assigned,[1],label-free biosensor hERG activator
O=C(Nc1cc(C(F)(F)F)ccc1O)Nc1cc(C(F)(F)F)ccc1O [NS1643],class of hERG modulator assigned,[9],label-free biosensor hERG activators
"O=C(O)c1ccccc1Nc1ccc(CCc2ccc(Cl)c(Cl)c2)cc1 [PD-118057, reference compound]",class of hERG modulator assigned,[1],label-free biosensor hERG activators
"O=C(O)c1cccnc1Nc1ccc2c(c1)CN(c1ccc(Cl)c(Cl)c1)C2 [PD-307243, reference compound]",class of hERG modulator assigned,[1],label-free biosensor hERG activators
"COc1ccc2nccc(C(=O)CC[C@@H]3CCN(CC#Cc4cc(F)cc(F)c4F)C[C@@H]3C(=O)O)c2c1 [RPR260243, reference compound]",class of hERG modulator assigned,[1],label-free biosensor hERG activators
"O=C(O)c1cc(-c2ccc(F)cc2F)ccc1O [diflunisal, reference compound]","score of modulation index, HT29 coordinate",[2],−9
same,"score of modulation index, HEK-hERG coordinate",[3],1
CN(CCOc1ccc(NS(C)(=O)=O)cc1)CCc1ccc(NS(C)(=O)=O)cc1 [dofetilide],Rb+ flux signal,[8],suppression
O=C(O)c1ccccc1Nc1cccc(C(F)(F)F)c1 [flufenamic acid],effect on hERG current (tail current),[10],weak hERG current activator; also recorded: potentiated
same,Rb+ flux signal,[8],weak hERG ion flux activator; also recorded: small and dose-dependent increase
same,modulation index against the mallotoxin DMR signal in HT29,[2]; [11],−90%
same,effect on the mallotoxin DMR signal in HT29 cells (in words),[2]; [11],selectively attenuated
same,"score of modulation index, HT29 coordinate",[2],−9
same,modulation index against the mallotoxin DMR signal in HEK-hERG,[3]; [11],~+12%
same,"score of modulation index, HEK-hERG coordinate",[3],1
same,DMR signal in HEK-hERG cells,[4],robust DMR signals
same,DMR signal in HT29 cells,[5],robust DMR signals
same,class of hERG modulator assigned,[9],"hERG pathway activator, a label free biosensor hERG activator; also recorded: weak hERG activator"
CC(=O)c1c(O)c(C)c(O)c(Cc2c(O)c3c(c(C(=O)/C=C/c4ccccc4)c2O)OC(C)(C)C=C3)c1O [mallotoxin],Rb+ flux signal,[8],significant increase
same,class of hERG modulator assigned,[9],label free biosensor hERG activator
